Experiment [1] has as its target Human thrombin (Homo sapiens (Human), UniProt P00734). In words: Thrombin protease activity inhibition assay (chromogenic substrate S-2238). The experiment is classed as biochemical. To be noted: 3 nM thrombin, 125 μM S-2238, 10 min pre-incubation, RT. The gist of the method:
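Ten-point, three-fold serial dilutions of compound tested against 3 nM enzyme at RT in Tris buffer (0.05 M, pH 7.4) with 0.015 M NaCl and 0.01% PEG-8000.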

For experiment [2], the target named is Human KLKB1 (Homo sapiens (Human), UniProt P03952). In words: KLKB1 kallikrein activity inhibition assay (chromogenic substrate S-2302). It is filed as biochemical. The gist of the method: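 Enzyme at a final 3 nM was assayed in 0.05 M Tris pH 7.4, 0.01 M NaCl and 0.2% PEG-8000 at room temperature, with compounds as ten-point threefold dilutions.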
Sequence of Human KLKB1 (P03952 391-638 limits assumed): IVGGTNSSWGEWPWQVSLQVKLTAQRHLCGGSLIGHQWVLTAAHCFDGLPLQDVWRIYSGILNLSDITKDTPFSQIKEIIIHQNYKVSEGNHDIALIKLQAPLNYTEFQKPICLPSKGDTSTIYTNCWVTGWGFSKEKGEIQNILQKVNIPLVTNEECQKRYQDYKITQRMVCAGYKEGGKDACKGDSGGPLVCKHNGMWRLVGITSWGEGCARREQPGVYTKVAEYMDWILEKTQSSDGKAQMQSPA
Sequence of Human KLKB1 (P03952 20-390 partner limits assumed): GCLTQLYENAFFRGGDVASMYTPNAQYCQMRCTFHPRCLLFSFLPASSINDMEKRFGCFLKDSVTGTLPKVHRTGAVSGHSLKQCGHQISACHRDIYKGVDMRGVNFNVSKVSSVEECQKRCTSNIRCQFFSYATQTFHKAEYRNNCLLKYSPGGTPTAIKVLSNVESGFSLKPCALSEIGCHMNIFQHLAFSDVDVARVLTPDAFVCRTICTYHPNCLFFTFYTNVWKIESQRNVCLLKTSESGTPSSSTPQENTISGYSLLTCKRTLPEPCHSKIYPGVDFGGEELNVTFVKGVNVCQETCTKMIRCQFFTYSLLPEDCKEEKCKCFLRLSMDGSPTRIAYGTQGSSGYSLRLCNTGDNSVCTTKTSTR

The term IC50 denotes the concentration at which inhibition is half-maximal. Lower therefore signals greater potency. Turning to `O=C(c1ccoc1)n1nc(-c2cccn(Cc3cccs3)c2=O)cc1NCc1ccc(Cl)s1` [Cmpd 5, 3-(5-[(5-chlorothiophen-2-yl)methyl]amino-1-[(furan-3-yl)carbonyl]-1H-pyrazol-3-yl)-1-(thiophen-2-ylmethyl)-1,2-dihydropyridin-2-one], the half-inhibitory concentration (IC50) in experiment [1] was below 100 nM; in experiment [2] (Table B), 1000 to 10000 nM. For `COc1ccc(C(=O)n2nc(-c3cccn(Cc4ccccc4)c3=O)cc2NCc2ccc(Cl)s2)c(OC)c1` [Cmpd 46, 1-benzyl-3-(5-[(5-chlorothiophen-2-yl)methyl]amino-1-[(2,4-dimethoxyphenyl)carbonyl]-1H-pyrazol-3-yl)-1,2-dihydropyridin-2-one] the same measures were below 100 nM and 10000 to 100000 nM.

With `CC1(C(=O)n2nc(-c3cccn(Cc4ccccc4)c3=O)cc2NCc2ccc(Cl)s2)CCOCC1` [Cmpd 48, 1-benzyl-3-(5-[(5-chlorothiophen-2-yl)methyl]amino-1-[(4-methyloxan-4-yl)carbonyl]-1H-pyrazol-3-yl)-1,2-dihydropyridin-2-one], the values for the IC50 in experiment [1] and in experiment [2] (Table B) were below 100 nM and above 100000 nM, respectively. The matching figures for `O=C(c1ccco1)n1nc(-c2cccn(Cc3ccccc3)c2=O)cc1NCc1ccc(Cl)s1` [Cmpd 49, 1-benzyl-3-(5-[(5-chlorothiophen-2-yl)methyl]amino-1-[(furan-2-yl)carbonyl]-1H-pyrazol-3-yl)-1,2-dihydropyridin-2-one]: below 100 nM and 100 to 1000 nM. For `O=C(c1ccoc1)n1nc(-c2cccn(Cc3ccccc3)c2=O)cc1NCc1ccc(Cl)s1` [Cmpd 50, 1-benzyl-3-(5-[(5-chlorothiophen-2-yl)methyl]amino-1-[(furan-3-yl)carbonyl]-1H-pyrazol-3-yl)-1,2-dihydropyridin-2-one] the same measures were below 100 nM and 10000 to 100000 nM. Take `O=C(c1cccs1)n1nc(-c2cccn(Cc3ccccc3)c2=O)cc1NCc1ccc(Cl)s1` [Cmpd 51, 1-benzyl-3-(5-[(5-chlorothiophen-2-yl)methyl]amino-1-[(thiophen-2-yl)carbonyl]-1H-pyrazol-3-yl)-1,2-dihydropyridin-2-one]: the values for the IC50 in experiment [1] and in experiment [2] (Table B) were below 100 nM and above 100000 nM, respectively.

Turning to `O=C(c1ccsc1)n1nc(-c2cccn(Cc3ccccc3)c2=O)cc1NCc1ccc(Cl)s1` [Cmpd 52, 1-benzyl-3-(5-[(5-chlorothiophen-2-yl)methyl]amino-1-[(thiophen-3-yl)carbonyl]-1H-pyrazol-3-yl)-1,2-dihydropyridin-2-one], the concentration for half-maximal inhibition (IC50) is below 100 nM in experiment [1] and 100 to 1000 nM in experiment [2] (Table B). The matching figures for `O=C(c1ccc(N2CCOCC2)cc1)n1nc(-c2cccn(Cc3ccccc3)c2=O)cc1NCc1ccc(Cl)s1` [Cmpd 53, 1-benzyl-3-(5-[(5-chlorothiophen-2-yl)methyl]amino-1-[4-(morpholin-4-yl)phenyl]carbonyl-1H-pyrazol-3-yl)-1,2-dihydropyridin-2-one]: below 100 nM and above 100000 nM. The matching figures for `COCCn1cccc(-c2cc(NCc3ccc(Cl)s3)n(C(=O)c3ccccc3)n2)c1=O` [Cmpd 62, 3-(1-benzoyl-5-[(5-chlorothiophen-2-yl)methyl]amino-1H-pyrazol-3-yl)-1-(2-methoxyethyl)-1,2-dihydropyridin-2-one]: below 100 nM and 1000 to 10000 nM.

For `Cn1cccc(-c2cc(NCc3ccc(Cl)s3)n(C(=O)c3ccccc3)n2)c1=O` [Cmpd 73, 3-(1-benzoyl-5-[(5-chlorothiophen-2-yl)methyl]amino-1H-pyrazol-3-yl)-1-methyl-1,2-dihydropyridin-2-one], the IC50 in experiment [1] was below 100 nM; in experiment [2] (Table B), above 100000 nM. The matching figures for `CC(C)(C)C(=O)n1nc(-c2cccn(Cc3ccco3)c2=O)cc1NCc1ccc(Cl)s1` [Cmpd 77, 3-(5-[(5-chlorothiophen-2-yl)methyl]amino-1-(2,2-dimethylpropanoyl)-1H-pyrazol-3-yl)-1-(furan-2-ylmethyl)-1,2-dihydropyridin-2-one]: below 100 nM and above 100000 nM. The matching figures for `COCCn1cccc(-c2cc(NCc3ccc(Cl)s3)n(C(=O)C(C)(C)CO)n2)c1=O` [Cmpd 92, 3-(5-[(5-chlorothiophen-2-yl)methyl]amino-1-(3-hydroxy-2,2-dimethylpropanoyl)-1H-pyrazol-3-yl)-1-(2-methoxyethyl)-1,2-dihydropyridin-2-one]: below 100 nM and 10000 to 100000 nM. The matching figures for `CC(C)(CO)C(=O)n1nc(-c2cccn(Cc3ccco3)c2=O)cc1NCc1ccc(Cl)s1` [Cmpd 93, 3-(5-[(5-chlorothiophen-2-yl)methyl]amino-1-(3-hydroxy-2,2-dimethylpropanoyl)-1H-pyrazol-3-yl)-1-(furan-2-ylmethyl)-1,2-dihydropyridin-2-one]: below 100 nM and 10000 to 100000 nM.

Take `CC(C)(CO)C(=O)n1nc(-c2cccn(Cc3cccnc3)c2=O)cc1NCc1ccc(Cl)s1` [Cmpd 94, 3-(5-[(5-chlorothiophen-2-yl)methyl]amino-1-(3-hydroxy-2,2-dimethylpropanoyl)-1H-pyrazol-3-yl)-1-(pyridin-3-ylmethyl)-1,2-dihydropyridin-2-one]: the half-inhibitory concentration (IC50) in experiment [1] is below 100 nM; in experiment [2] (Table B), 1000 to 10000 nM.

On to `COCC(C)(C)C(=O)n1nc(-c2cccn(Cc3ccco3)c2=O)cc1NCc1ccc(Cl)s1` [Cmpd 98, 3-(5-[(5-chlorothiophen-2-yl)methyl]amino-1-(3-methoxy-2,2-dimethylpropanoyl)-1H-pyrazol-3-yl)-1-(furan-2-ylmethyl)-1,2-dihydropyridin-2-one], for which the 50% inhibitory concentration (IC50) in experiment [1] is below 100 nM; in experiment [2] (Table B) it was above 100000 nM. The matching figures for `COCC(C)(C)C(=O)n1nc(-c2cccn(Cc3cccnn3)c2=O)cc1NCc1ccc(Cl)s1` [Cmpd 100, 3-(5-[(5-chlorothiophen-2-yl)methyl]amino-1-(3-methoxy-2,2-dimethylpropanoyl)-1H-pyrazol-3-yl)-1-(pyridazin-3-ylmethyl)-1,2-dihydropyridin-2-one]: below 100 nM and 1000 to 10000 nM. For `COCC(C)(C)C(=O)n1nc(-c2cccn(Cc3ccccn3)c2=O)cc1NCc1ccc(Cl)s1` [Cmpd 101, 3-(5-[(5-chlorothiophen-2-yl)methyl]amino-1-(3-methoxy-2,2-dimethylpropanoyl)-1H-pyrazol-3-yl)-1-(pyridin-2-ylmethyl)-1,2-dihydropyridin-2-one] the same measures were below 100 nM and 10000 to 100000 nM.

As for `COCC(C)(C)C(=O)n1nc(-c2cccn(Cc3cccnc3)c2=O)cc1NCc1ccc(Cl)s1` [Cmpd 102, 3-(5-[(5-chlorothiophen-2-yl)methyl]amino-1-(3-methoxy-2,2-dimethylpropanoyl)-1H-pyrazol-3-yl)-1-(pyridin-3-ylmethyl)-1,2-dihydropyridin-2-one], the IC50 in experiment [1] is below 100 nM; in experiment [2] (Table B), 10000 to 100000 nM. For `COCC(C)(C)C(=O)n1nc(-c2cccn(Cc3ccncc3)c2=O)cc1NCc1ccc(Cl)s1` [Cmpd 103, 3-(5-[(5-chlorothiophen-2-yl)methyl]amino-1-(3-methoxy-2,2-dimethylpropanoyl)-1H-pyrazol-3-yl)-1-(pyridin-4-ylmethyl)-1,2-dihydropyridin-2-one] the same measures were below 100 nM and 10000 to 100000 nM. For `COCC(C)(C)C(=O)n1nc(-c2cccn(Cc3ncccn3)c2=O)cc1NCc1ccc(Cl)s1` [Cmpd 104, 3-(5-[(5-chlorothiophen-2-yl)methyl]amino-1-(3-methoxy-2,2-dimethylpropanoyl)-1H-pyrazol-3-yl)-1-(pyrimidin-2-ylmethyl)-1,2-dihydropyridin-2-one] the same measures were below 100 nM and 1000 to 10000 nM. Turning to `COCC(C)(C)C(=O)n1nc(-c2cccn(Cc3cccs3)c2=O)cc1NCc1ccc(Cl)s1` [Cmpd 105, 3-(5-[(5-chlorothiophen-2-yl)methyl]amino-1-(3-methoxy-2,2-dimethylpropanoyl)-1H-pyrazol-3-yl)-1-(thiophen-2-ylmethyl)-1,2-dihydropyridin-2-one], the values for the half-maximal inhibitory concentration (IC50) in experiment [1] and in experiment [2] (Table B) were below 100 nM and above 100000 nM, respectively. For `COCC(C)(C)C(=O)n1nc(-c2cccn(Cc3ccsc3)c2=O)cc1NCc1ccc(Cl)s1` [Cmpd 106, 3-(5-[(5-chlorothiophen-2-yl)methyl]amino-1-(3-methoxy-2,2-dimethylpropanoyl)-1H-pyrazol-3-yl)-1-(thiophen-3-ylmethyl)-1,2-dihydropyridin-2-one] the same measures were below 100 nM and above 100000 nM. The matching figures for `COCCn1cccc(-c2cc(NCc3ccc(Cl)s3)n(C(=O)c3cccc4c3OCCO4)n2)c1=O` [Cmpd 109, 3-(5-[(5-chlorothiophen-2-yl)methyl]amino-1-[(2,3-dihydro-1,4-benzodioxin-5-yl)carbonyl]-1H-pyrazol-3-yl)-1-(2-methoxyethyl)-1,2-dihydropyridin-2-one]: below 100 nM and 1000 to 10000 nM.

Regarding `O=C(c1cccc2c1OCCO2)n1nc(-c2cccn(Cc3ncccn3)c2=O)cc1NCc1ccc(Cl)s1` [Cmpd 116, 3-(5-[(5-chlorothiophen-2-yl)methyl]amino-1-[(2,3-dihydro-1,4-benzodioxin-5-yl)carbonyl]-1H-pyrazol-3-yl)-1-(pyrimidin-2-ylmethyl)-1,2-dihydropyridin-2-one], the results for the IC50 in experiment [1] and in experiment [2] (Table B) were below 100 nM and 1000 to 10000 nM, respectively. `Cc1cc(N(C)c2ccc(Cl)cc2)nc(N[C@H]2CCc3c(N)cccc3C2)n1` [Cmpd 425, 2-N-[(2S)-5-amino-1,2,3,4-tetrahydronaphthalen-2-yl]-4-N-(4-chlorophenyl)-4-N,6-dimethylpyrimidine-2,4-diamine] came in with an IC50 in experiment [2] (3 nM KLKB1, 250 μM S-2302, 10 min pre-incubation, RT) above 100000 nM.

These data come from patent publication US9687479B2, “Multisubstituted aromatic compounds as serine protease inhibitors” (VERSEON CORPORATION, priority 2013, dated 2017).
